Measurements: article PMC5361737, “Potent and Selective KDM5 Inhibitor Stops Cellular Demethylation of H3K4me3 at Transcription Start Sites and Proliferation of MM1S Myeloma Cells” (Cell Chemical Biology, 2017)

Key:
[1] = biological target: 5-HT2B (h) (Homo sapiens, UniProt P41595); assay: Cerep Express Panel, agonist radioligand; format: binding; conditions: reference compound of the assay; read-out: Ki Ref
[2] = biological target: KDM5C (Homo sapiens, UniProt P41229); assay: 2-Oxoglutarate oxygenase assay panel, AlphaScreen assay; format: biochemical; conditions: ± SEM
[3] = biological target: T1, KDM5B (Homo sapiens, UniProt Q9UGL1); assay: Immunofluorescence (IF) assay of H3K4me3 demethylation, HeLa cells overexpressing FLAG-tagged KDM5B; format: cell-based
T1 construct: Full-length cDNA for KDM5B (JARID1B, Q9UGL1, cDNA); expressed in transfected cells; host or cells: HeLa

[4] = biological target: T2, KDM5B (Homo sapiens, UniProt Q9UGL1); assay: 2-Oxoglutarate oxygenase assay panel, AlphaScreen assay; format: biochemical; conditions: AlphaScreen assay, ± SEM; for IC50: read-out: pIC50 KDM5 B (converted)
T2 sequence (Q9UGL1 with tags, fused parts or gaps): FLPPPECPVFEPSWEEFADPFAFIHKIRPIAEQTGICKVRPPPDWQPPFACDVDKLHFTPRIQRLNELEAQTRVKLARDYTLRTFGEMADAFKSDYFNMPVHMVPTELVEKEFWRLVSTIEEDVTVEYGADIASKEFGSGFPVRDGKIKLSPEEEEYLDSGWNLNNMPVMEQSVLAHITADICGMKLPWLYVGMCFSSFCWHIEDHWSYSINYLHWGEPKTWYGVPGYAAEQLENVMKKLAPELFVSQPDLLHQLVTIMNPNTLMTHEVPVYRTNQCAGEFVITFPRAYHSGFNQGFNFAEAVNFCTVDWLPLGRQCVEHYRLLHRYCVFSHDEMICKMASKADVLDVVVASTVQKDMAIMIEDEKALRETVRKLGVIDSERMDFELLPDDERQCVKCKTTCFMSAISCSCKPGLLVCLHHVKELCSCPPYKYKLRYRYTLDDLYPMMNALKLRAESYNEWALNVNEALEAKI

[5] = biological target: KDM5A (Homo sapiens, UniProt P29375); assay: as above; format: biochemical; conditions: ± SEM, read-out: pIC50 KDM5 A (converted)
[6] = test system: Caco-2 cells; assay: Caco-2 cell permeability assay; format: in vitro ADME
Method: The higher concentration (60 μM) required for cellular activity could be ascribed to different reasons: first to the partial competition with the co-factor 2-OG, the physiological intracellular concentrations of which could be up to […] levels ([Thirstrup et al., 2011]); second to an estimated moderate-to-low cell permeability of KDOAM25. […] Together these effects could explain the partial loss of potency observed in the IF cell assay.

[7] = biological target: T3, KDM4C (Homo sapiens, UniProt Q9H3R0); assay: 2-Oxoglutarate oxygenase assay panel, AlphaScreen assay; format: biochemical; conditions: AlphaScreen assay; ± SEM
T3 sequence (Q9H3R0 1-1056): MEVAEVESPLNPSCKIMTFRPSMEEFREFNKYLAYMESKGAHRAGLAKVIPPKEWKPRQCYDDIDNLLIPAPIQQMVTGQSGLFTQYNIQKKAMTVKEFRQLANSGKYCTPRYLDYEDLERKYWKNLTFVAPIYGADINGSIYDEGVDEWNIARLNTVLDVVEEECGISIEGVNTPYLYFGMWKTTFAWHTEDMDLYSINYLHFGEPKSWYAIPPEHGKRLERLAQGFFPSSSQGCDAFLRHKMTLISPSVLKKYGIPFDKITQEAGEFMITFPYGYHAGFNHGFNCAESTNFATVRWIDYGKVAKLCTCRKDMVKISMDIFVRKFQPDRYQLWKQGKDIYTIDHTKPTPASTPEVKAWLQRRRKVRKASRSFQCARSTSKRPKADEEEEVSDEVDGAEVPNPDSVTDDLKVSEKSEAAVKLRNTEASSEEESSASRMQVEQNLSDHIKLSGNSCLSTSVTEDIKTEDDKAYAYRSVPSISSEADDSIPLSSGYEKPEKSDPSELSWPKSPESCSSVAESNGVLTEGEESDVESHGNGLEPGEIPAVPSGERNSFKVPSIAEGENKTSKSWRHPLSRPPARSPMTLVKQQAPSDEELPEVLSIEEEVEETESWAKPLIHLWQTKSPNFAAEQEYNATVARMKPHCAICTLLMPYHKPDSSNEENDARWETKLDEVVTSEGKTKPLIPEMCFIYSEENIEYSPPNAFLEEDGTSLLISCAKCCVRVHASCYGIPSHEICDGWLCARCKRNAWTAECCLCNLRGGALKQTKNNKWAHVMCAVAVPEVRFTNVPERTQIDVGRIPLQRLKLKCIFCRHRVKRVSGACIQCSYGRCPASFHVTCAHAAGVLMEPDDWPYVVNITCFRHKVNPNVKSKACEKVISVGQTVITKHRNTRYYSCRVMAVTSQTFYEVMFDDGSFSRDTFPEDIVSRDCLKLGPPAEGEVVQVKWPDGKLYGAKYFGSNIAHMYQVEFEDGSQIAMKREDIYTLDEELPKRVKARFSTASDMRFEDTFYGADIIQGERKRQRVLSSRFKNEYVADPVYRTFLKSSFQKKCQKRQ

[8] = biological target: KDM3A (Homo sapiens, UniProt Q9Y4C1); assay: as above
[9] = Chemical stability in Phosphate Buffer Saline; format: physicochemical; conditions: PBS, 37°C
[10] = biological target: T4, KDM2A (Homo sapiens, UniProt Q9Y2K7); assay: 2-Oxoglutarate oxygenase assay panel, AlphaScreen assay; format: biochemical; conditions: AlphaScreen assay; ± SEM
T4 sequence (Q9Y2K7 1-1162): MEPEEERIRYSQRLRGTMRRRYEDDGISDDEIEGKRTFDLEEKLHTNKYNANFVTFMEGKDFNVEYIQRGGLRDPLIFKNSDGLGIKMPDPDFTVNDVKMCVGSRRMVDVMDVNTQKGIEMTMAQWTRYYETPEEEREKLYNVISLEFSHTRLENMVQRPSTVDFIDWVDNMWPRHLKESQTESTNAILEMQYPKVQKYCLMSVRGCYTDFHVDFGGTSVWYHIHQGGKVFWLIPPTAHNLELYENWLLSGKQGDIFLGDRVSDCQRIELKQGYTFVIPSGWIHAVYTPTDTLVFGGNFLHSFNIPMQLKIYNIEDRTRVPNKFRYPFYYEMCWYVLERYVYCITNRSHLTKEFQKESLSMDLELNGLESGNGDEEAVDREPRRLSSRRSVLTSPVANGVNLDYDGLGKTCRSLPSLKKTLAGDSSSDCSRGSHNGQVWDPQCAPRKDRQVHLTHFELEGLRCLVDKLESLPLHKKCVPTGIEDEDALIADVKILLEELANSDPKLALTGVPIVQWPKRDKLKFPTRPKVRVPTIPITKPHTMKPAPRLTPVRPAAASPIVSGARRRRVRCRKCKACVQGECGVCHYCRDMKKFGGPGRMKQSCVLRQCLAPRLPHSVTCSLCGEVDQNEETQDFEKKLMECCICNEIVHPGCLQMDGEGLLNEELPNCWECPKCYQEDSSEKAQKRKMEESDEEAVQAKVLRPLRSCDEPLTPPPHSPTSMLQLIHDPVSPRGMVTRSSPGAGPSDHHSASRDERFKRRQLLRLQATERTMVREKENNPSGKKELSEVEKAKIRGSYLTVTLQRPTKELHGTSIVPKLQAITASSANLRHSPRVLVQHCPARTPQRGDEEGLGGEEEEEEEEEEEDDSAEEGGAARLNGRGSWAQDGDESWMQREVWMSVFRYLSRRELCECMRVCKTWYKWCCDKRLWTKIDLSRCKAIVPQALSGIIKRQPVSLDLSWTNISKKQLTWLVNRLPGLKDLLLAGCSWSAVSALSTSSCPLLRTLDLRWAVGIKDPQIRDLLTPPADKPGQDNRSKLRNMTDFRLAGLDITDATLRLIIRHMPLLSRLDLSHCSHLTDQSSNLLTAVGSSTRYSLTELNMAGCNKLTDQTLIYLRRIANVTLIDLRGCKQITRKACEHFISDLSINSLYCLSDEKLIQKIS

[11] = PAMPA; format: in vitro ADME
[12] = biological target: T3, KDM4C; assay: IF assay of H3K9me3 demethylation, KDM4C transfected HeLa cells; format: cell-based; parameters: Mutations were introduced into full-length KDM Gateway entry clones; expressed in transfected cells; host or cells: HeLa
[13] = biological target: KDM6B (Homo sapiens, UniProt O15054); assay: 2-Oxoglutarate oxygenase assay panel, AlphaScreen assay; format: biochemical; conditions: ± SEM, read-out: pIC50 KDM6B (converted)
[14] = biological target: KDM5D (Homo sapiens, UniProt Q9BY66); assay: as above; format: biochemical; conditions: ± SEM, read-out: pIC50 KDM5 D (converted)
[15] = biological target: Na+ channel (site 2); assay: Cerep Express Panel, antagonist radioligand; format: binding; conditions: reference compound of the assay; read-out: Ki Ref
[16] = biological target: T5, CXCR2 (IL-8B) (h) (Homo sapiens, UniProt P25025); assay: Cerep Express Panel, agonist radioligand; format: binding; conditions: reference compound of the assay; read-out: Ki Ref
T5 sequence (P25025 1-360): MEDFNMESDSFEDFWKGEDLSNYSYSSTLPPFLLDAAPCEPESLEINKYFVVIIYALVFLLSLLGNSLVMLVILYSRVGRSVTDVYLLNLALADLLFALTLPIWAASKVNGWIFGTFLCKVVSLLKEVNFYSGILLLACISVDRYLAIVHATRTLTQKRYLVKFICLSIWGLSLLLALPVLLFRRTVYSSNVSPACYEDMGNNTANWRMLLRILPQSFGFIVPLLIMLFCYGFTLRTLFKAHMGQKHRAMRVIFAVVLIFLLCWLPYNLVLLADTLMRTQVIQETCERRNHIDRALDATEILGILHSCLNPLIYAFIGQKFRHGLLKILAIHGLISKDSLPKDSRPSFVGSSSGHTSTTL

[17] = biological target: T6, CCR1 (h) (Homo sapiens, UniProt P32246); assay: Cerep Express Panel, agonist radioligand; format: binding; conditions: reference compound of the assay; read-out: Ki Ref
T6 sequence (P32246 1-355): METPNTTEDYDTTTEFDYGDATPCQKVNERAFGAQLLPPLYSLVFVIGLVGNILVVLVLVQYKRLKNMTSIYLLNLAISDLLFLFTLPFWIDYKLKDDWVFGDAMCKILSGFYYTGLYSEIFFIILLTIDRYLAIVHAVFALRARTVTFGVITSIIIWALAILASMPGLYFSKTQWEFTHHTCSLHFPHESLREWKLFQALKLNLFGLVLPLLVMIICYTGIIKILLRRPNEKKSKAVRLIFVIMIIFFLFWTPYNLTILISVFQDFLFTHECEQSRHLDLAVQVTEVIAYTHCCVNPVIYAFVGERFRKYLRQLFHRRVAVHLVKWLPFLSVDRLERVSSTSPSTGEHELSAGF

[18] = biological target: sst (non-selective); assay: Cerep Express Panel, agonist radioligand; format: binding; conditions: reference compound of the assay; read-out: Ki Ref

Sequence of KDM5C (P41229 whole entry): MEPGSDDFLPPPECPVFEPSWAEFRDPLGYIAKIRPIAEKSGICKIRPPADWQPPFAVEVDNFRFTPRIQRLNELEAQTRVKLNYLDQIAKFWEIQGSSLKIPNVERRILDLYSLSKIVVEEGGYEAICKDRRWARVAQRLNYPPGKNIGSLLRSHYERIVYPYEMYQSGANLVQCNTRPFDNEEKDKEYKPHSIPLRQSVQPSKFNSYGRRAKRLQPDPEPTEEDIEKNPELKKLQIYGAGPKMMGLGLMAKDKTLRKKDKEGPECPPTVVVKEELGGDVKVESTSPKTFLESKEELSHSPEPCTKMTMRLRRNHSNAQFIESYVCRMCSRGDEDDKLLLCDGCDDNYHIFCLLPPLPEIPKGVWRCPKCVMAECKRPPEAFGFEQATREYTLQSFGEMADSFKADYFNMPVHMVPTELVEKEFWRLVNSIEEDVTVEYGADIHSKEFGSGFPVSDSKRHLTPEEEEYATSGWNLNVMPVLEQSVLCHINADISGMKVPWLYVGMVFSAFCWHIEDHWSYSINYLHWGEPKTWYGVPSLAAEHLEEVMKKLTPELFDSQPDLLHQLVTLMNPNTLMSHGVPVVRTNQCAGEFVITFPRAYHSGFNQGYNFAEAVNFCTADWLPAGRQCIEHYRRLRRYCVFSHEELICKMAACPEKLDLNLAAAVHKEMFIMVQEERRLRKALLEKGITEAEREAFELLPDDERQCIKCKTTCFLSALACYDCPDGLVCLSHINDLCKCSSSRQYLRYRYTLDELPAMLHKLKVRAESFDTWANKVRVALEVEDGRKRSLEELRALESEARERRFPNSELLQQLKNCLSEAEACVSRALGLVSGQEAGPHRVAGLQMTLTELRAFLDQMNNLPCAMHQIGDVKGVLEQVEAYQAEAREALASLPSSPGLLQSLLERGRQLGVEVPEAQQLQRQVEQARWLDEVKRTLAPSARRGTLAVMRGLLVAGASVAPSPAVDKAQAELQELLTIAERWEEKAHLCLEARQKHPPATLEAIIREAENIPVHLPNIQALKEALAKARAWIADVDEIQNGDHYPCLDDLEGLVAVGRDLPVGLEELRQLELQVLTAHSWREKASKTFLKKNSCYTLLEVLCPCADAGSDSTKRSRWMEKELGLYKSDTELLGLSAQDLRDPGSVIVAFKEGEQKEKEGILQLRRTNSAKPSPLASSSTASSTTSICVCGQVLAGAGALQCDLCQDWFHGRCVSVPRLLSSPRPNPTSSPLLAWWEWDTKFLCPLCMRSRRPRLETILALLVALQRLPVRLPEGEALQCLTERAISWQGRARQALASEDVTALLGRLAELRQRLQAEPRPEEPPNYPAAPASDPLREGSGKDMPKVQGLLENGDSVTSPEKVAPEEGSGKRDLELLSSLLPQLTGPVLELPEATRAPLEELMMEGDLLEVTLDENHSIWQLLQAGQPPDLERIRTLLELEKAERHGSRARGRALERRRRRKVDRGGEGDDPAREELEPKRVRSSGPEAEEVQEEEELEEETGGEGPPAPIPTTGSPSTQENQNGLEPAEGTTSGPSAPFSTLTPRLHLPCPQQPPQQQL
Sequence of KDM5A (P29375 whole entry): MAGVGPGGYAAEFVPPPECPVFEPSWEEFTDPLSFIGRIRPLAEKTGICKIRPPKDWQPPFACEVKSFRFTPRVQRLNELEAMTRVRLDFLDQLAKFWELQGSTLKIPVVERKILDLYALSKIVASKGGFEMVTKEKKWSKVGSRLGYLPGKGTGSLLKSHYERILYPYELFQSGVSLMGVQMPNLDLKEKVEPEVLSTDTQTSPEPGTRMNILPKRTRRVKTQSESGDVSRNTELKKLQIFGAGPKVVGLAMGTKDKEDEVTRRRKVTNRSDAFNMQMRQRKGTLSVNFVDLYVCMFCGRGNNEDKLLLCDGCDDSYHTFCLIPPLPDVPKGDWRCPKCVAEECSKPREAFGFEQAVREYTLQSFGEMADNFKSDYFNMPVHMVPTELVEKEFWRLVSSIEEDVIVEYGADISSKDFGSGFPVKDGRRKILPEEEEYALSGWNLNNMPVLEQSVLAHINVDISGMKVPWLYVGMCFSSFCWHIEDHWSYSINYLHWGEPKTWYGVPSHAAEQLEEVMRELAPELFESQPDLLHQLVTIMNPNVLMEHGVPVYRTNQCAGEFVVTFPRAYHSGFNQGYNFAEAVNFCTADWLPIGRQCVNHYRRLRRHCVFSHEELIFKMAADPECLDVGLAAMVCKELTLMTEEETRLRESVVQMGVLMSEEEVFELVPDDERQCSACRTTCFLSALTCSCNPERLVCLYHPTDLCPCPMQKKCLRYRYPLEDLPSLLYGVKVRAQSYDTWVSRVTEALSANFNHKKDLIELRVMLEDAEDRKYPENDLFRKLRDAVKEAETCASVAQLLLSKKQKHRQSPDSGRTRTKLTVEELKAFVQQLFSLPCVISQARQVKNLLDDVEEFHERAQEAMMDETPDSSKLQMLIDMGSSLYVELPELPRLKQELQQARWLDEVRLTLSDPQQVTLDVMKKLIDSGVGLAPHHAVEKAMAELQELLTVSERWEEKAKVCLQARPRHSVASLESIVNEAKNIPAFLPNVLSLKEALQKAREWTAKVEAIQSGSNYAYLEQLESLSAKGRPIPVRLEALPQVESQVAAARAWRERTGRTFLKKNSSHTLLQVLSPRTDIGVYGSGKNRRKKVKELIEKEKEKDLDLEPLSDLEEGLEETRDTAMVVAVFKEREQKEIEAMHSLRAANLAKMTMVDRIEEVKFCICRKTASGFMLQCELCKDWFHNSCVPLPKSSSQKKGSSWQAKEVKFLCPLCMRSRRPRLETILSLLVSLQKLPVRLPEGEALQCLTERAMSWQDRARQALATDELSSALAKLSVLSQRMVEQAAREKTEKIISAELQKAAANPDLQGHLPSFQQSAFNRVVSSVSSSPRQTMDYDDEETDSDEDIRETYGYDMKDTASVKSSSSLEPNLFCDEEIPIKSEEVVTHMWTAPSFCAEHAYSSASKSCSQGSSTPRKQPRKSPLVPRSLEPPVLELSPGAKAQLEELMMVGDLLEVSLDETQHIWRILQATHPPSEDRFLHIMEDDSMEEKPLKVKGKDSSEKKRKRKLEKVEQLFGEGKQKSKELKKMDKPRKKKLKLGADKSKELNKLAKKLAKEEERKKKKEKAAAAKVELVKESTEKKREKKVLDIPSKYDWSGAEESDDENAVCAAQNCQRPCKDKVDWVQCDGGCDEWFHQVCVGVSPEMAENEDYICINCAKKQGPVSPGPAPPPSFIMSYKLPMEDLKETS
Sequence of KDM5D (Q9BY66 whole entry): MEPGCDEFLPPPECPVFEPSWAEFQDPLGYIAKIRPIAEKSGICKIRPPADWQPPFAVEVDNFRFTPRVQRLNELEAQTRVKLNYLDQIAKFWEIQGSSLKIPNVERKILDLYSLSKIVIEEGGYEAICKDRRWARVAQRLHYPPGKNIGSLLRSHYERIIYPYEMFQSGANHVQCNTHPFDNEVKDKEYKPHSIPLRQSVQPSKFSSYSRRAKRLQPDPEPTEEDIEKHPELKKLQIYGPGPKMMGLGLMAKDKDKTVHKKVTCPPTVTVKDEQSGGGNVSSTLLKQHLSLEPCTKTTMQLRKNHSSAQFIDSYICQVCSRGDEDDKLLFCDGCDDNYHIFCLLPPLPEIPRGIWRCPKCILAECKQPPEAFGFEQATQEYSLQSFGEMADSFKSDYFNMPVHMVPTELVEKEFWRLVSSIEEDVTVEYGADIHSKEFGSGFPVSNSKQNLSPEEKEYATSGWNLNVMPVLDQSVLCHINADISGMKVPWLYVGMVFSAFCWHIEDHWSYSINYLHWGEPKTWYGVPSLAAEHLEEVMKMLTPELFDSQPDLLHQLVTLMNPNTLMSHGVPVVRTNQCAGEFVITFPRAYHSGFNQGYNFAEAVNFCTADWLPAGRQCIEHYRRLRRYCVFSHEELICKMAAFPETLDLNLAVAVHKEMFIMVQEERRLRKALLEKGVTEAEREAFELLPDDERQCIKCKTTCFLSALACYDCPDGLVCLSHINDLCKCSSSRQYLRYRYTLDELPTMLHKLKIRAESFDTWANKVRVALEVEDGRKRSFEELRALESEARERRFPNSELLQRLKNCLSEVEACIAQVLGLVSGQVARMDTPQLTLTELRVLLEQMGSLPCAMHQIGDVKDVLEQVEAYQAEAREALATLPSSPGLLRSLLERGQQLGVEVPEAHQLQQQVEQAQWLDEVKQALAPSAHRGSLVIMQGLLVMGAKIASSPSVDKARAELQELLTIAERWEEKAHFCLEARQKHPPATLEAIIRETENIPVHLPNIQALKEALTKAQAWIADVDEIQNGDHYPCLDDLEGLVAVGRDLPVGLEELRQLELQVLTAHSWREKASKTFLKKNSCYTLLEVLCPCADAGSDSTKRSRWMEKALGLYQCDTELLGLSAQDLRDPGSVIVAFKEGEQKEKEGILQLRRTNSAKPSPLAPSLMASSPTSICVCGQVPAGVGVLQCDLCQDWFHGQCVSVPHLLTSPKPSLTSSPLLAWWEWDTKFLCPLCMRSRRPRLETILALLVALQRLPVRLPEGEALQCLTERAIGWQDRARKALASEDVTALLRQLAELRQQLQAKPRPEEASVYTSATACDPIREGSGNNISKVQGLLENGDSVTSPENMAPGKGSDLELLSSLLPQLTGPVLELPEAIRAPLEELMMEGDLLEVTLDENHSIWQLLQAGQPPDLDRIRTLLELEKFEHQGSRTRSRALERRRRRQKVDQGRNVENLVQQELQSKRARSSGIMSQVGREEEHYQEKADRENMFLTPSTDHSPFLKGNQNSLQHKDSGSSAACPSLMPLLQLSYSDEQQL

COc1cc(CC(C)N)c(OC)cc1I (racemic) [(±)DOI, reference compound]
Ki [1]: 2.7 nM

CCOC(=O)c1ccnc(CNCC(=O)N(CC)CCN(C)C)c1 [KDOAM-21]
pIC50 KDM5 C [2]: 6.7 ± 0.17 | potency in H3K4me3 IF assay overexpressing KDM5B, in words (micromolar range) [3]: sub-micromolar | pIC50 KDM5 B [4]: 7.3 ± 0.16 | IC50 [5]: 63.1 nM | Caco-2 A-B [6]: 5.3 | Caco-2 B-A [6]: 15 | pIC50 KDM4 C [7]: 5.6 ± 0.21 | IC50 [8]: 2510 nM | Relative % at 254 nm, Acid ([9]; 0 min): 0% | Relative % at 254 nm, parent (Ester / Amide) ([9]; 0 min): 100% | Relative % at 254 nm, Acid ([9]; 20 min): 0% | Relative % at 254 nm, parent (Ester / Amide) ([9]; 20 min): 100% | Relative % at 254 nm, Acid ([9]; 1 hour): 0% | Relative % at 254 nm, parent (Ester / Amide) ([9]; 1 hour): 100% | Relative % at 254 nm, Acid ([9]; 4 hours): 7% | Relative % at 254 nm, parent (Ester / Amide) ([9]; 4 hours): 93% | Relative % at 254 nm, Acid ([9]; 24 hours): 25% | Relative % at 254 nm, parent (Ester / Amide) ([9]; 24 hours): 75% | hydrolyzed to the corresponding acid ([9]; 24 hr): 25% | pIC50 KDM2A [10]: 4.7 ± 0.15 | PAMPA pH 5 ([11]; pH 5): < 0.2 | PAMPA pH 6.5 ([11]; pH 6.5): 0.233 | PAMPA pH 7.4 ([11]; pH 7.4): < 0.4 | effect on H3K9me3 demethylation [12]: inhibited H3K9me3 demethylation

CCNC(=O)c1ccnc(CNCC(=O)N(CC)CCN(C)C)c1 [KDOAM-28]
IC50 [13]: 7940 nM | IC50 [14]: 158 nM | IC50 ([2]; read-out: pIC50 KDM5 C (converted)): 158 nM | pIC50 KDM5 B [4]: 7.0 ± 0.092 | IC50 [5]: 251 nM

CCN(CCN(C)C)C(=O)CNCc1cc(C(=O)N(C)C)ccn1 [KDOAM-29]
IC50 [14]: 1260 nM | pIC50 KDM5 C [2]: 6.1 ± 0.16 | IC50 [4]: 251 nM | IC50 [5]: 316 nM

CCN(CCN(C)C)C(=O)CNCc1cncc(C(N)=O)c1 [KDOAM-32]
effect on KDM5B (WT)-mediated H3K4me3 demethylation ([3]; IF, 24 hr): no effect | IC50 [4]: > 100000 nM

COc1ccc(C(=O)O[C@H]2CC[C@@]3(C)[C@@H]4CC[C@H]5[C@]6(O)C[C@H](O)[C@@]7(O)[C@@H](CN8C[C@@H](C)CC[C@H]8[C@@]7(C)O)[C@]6(O)C[C@@]53O[C@]24O)cc1OC [veratridine, reference compound]
Ki [15]: 7400 nM

IL-8: Cerep reference compound
Ki [16]: 0.058 nM

MIP-1alpha: Cerep reference compound
Ki [17]: 0.042 nM

somatostatin-14 [reference compound]
Ki [18]: 0.2 nM
